# Experimental data as given in US20240368181A1, “QUINOXALINE DERIVATIVES AND USES THEREOF” (Black Diamond Therapeutics, Inc., priority 2021, published 2024).
# Legend:
# Type in all cases: cell-based
# [1] = tested on: DMS-114 (FGFR1 overexpression) cells; assay: Cell proliferation assay (CellTiterGlo), DMS-114 cells; details: 72 hours, inhibition of cell growth, intracellular ATP (CellTiterGlo)
# Description: (§1) The following is a non-limiting example that describes a cell proliferation assay used to determine the biological activity of the compounds of the present disclosure. More specifically, the assay as used to assess the ability of the compounds to inhibit cell proliferation.
# (§2) Briefly, SNU-16 (FGFR2-amplification) cells, were resuspended at 18,520c/ml mL in RPMI containing 10% Heat Inactivated FBS, 1% L-glutamine and dispensed in duplicate (463c/well) into 384 well plates. UM-UC-14 (FGFR3-S249C) cells were resuspended at 40.000c/ml mL in RPMI containing 10% Heat Inactivated FBS, 1% L-glutamine and dispensed in duplicate (1000c/well) into 384 well plates. DMS-114 (FGFR1 overexpression) cells and were resuspended at 40,000c/ml mL in RPMI containing 10% Heat Inactivated FBS, 1% L-glutamine and dispensed in duplicate (1000c/well) into 384 well plates. RT-112 (FGFR3-Tacc3 fusion) cells were resuspended at 40,000c/ml mL in RPMI containing 10% Heat Inactivated FBS, 1% L-glutamine and dispensed in duplicate (1000c/well) into 384 well plates. To determine the effect of the compounds of the present disclosure on cell proliferation, SNU-16, UM-UC-14, DMS-114 and RT112 cells were incubated for 72 hours in the presence of vehicle control (DMSO) or a compound of the present disclosure at varying concentrations. Inhibition of cell growth was subsequently determined by luminescent quantification (Envision by Perkin Elmer) of intracellular ATP content using CellTiterGlo (Promega), according to the protocol provided by the manufacturer. To determine the IC50 values, the vehicle-treated cells were normalized as viable cells and analyzed using the CDD Vault software (Collaborative Drug Discovery, Burlingame, CA).
# [2] = tested on: SNU-16 (FGFR2-amplification) cells; assay: Cell proliferation assay (CellTiterGlo), SNU-16 cells; details: inhibition of cell growth, intracellular ATP (CellTiterGlo)
# Description: as §1, §2
# [3] = tested on: UM-UC-14 (FGFR3-S249C) cells; assay: Cell proliferation assay (CellTiterGlo), UM-UC-14 cells; details: UMUC14, 72 h, inhibition of cell growth, intracellular ATP (CellTiterGlo)
# Description: as §1, §2
# [4] = tested on: RT-112 (FGFR3-Tacc3 fusion) cells; assay: Cell proliferation assay (CellTiterGlo), RT-112 cells; details: RT112 cells, inhibition of cell growth, intracellular ATP (CellTiterGlo)
# Description: as §1, §2
Compound,IC50 ([1]; Homo sapiens),"IC50 ([2]; Homo sapiens, SNU-16, 72 h)",IC50 [3],"IC50 ([4]; Homo sapiens, RT-112, 72 h)",IC50 ([2]; 72 hours),IC50 [1],IC50 ([4]; 72 hours)
Cc1nc2ccc(Oc3ccc4ncc(-c5cnn(CC6CC(C)OC(C)C6)c5)nc4c3Cl)cc2[nH]1 (centres unmarked) [Compound 1],0.02 to 0.1 µM,0.02 to 0.1 µM,,,,,
Cc1nc2ccc(Oc3ccc4ncc(-c5cnn(CC6CCOC6)c5)nc4c3Cl)cc2[nH]1 (centres unmarked) [Compound 2],≥ 0.4 µM,0.02 to 0.1 µM,0.02 to 0.1 µM,0.02 to 0.1 µM,,,
Cc1nc2ccc(Oc3ccc4ncc(-c5cnn(CC6CCN(C)C(C)(C)C6)c5)nc4c3Cl)cc2[nH]1 (centres unmarked) [Compound 3],0.1 to 0.4 µM,0.02 to 0.1 µM,0.02 to 0.1 µM,0.02 to 0.1 µM,,,
Cc1nc2ccc(Oc3ccc4ncc(-c5cnn(CC6CCN(C)C6)c5)nc4c3Cl)cc2[nH]1 (centres unmarked) [Compound 4],0.1 to 0.4 µM,0.02 to 0.1 µM,0.02 to 0.1 µM,0.02 to 0.1 µM,,,
Cc1nc2ccc(Oc3ccc4ncc(-c5cnn(CC6CC(C)N(C)C(C)C6)c5)nc4c3Cl)cc2[nH]1 (centres unmarked) [Compound 5],≥ 0.4 µM,0.02 to 0.1 µM,0.02 to 0.1 µM,0.02 to 0.1 µM,,,
Cc1nc2ccc(Oc3ccc4ncc(-c5cnn(CC#N)c5)nc4c3Cl)cc2[nH]1 [Compound 6],≥ 0.4 µM,0.02 to 0.1 µM,0.1 to 0.4 µM,0.02 to 0.1 µM,,,
Cc1nc2ccc(Oc3ccc4ncc(-c5cnn(C6CCCNC6)c5)nc4c3Cl)cc2[nH]1 (centres unmarked) [Compound 7],0.1 to 0.4 µM,0.02 to 0.1 µM,0.02 to 0.1 µM,0.02 to 0.1 µM,,,
Cc1nc2ccc(Oc3ccc4ncc(-c5cnn(CC6CCOC(C)(C)C6)c5)nc4c3Cl)cc2[nH]1 (centres unmarked) [Compound 8],0.1 to 0.4 µM,0.02 to 0.1 µM,0.02 to 0.1 µM,< 0.02 µM,,,
Cc1nc2ccc(Oc3ccc4ncc(-c5cnn(CC6CCC(F)(F)CC6)c5)nc4c3Cl)cc2[nH]1 [Compound 9],≥ 0.4 µM,0.02 to 0.1 µM,0.02 to 0.1 µM,0.02 to 0.1 µM,,,
Cc1nc2ccc(Oc3ccc4ncc(-c5cnn(CC6CCNC6)c5)nc4c3Cl)cc2[nH]1 (centres unmarked) [Compound 10],≥ 0.4 µM,0.02 to 0.1 µM,0.1 to 0.4 µM,0.02 to 0.1 µM,,,
Cc1nc2ccc(Oc3ccc4ncc(-c5cnn(CC6CCNCC6)c5)nc4c3Cl)cc2[nH]1 [Compound 11],≥ 0.4 µM,,0.1 to 0.4 µM,0.02 to 0.1 µM,0.02 to 0.1 µM,,
Cc1nc2ccc(Oc3ccc4ncc(-c5cnn(CC6CCN(S(=O)(=O)C(F)F)CC6)c5)nc4c3Cl)cc2[nH]1 [Compound 12],0.1 to 0.4 µM,0.02 to 0.1 µM,0.02 to 0.1 µM,0.02 to 0.1 µM,,,
Cc1nc2ccc(Oc3ccc4ncc(-c5cnn(CC6CCN(S(=O)(=O)CCO)CC6)c5)nc4c3Cl)cc2[nH]1 [Compound 13],≥ 0.4 µM,0.02 to 0.1 µM,0.02 to 0.1 µM,0.02 to 0.1 µM,,,
Cc1nc2ccc(Oc3ccc4ncc(-c5cnn(CC6CCN(C)CC6)c5)nc4c3Cl)cc2[nH]1 [Compound 14],0.1 to 0.4 µM,< 0.02 µM,< 0.02 µM,< 0.02 µM,,,
Cc1nc2ccc(Oc3ccc4ncc(-c5cnn(CCO)c5)nc4c3Cl)cc2[nH]1 [Compound 15],≥ 0.4 µM,0.02 to 0.1 µM,0.02 to 0.1 µM,0.02 to 0.1 µM,,,
Cc1nc2ccc(Oc3ccc4ncc(-c5cnn(CC6CNC6)c5)nc4c3Cl)cc2[nH]1 [Compound 16],≥ 0.4 µM,0.1 to 0.4 µM,0.1 to 0.4 µM,0.1 to 0.4 µM,,,
Cc1nc2ccc(Oc3ccc4ncc(-c5cnn(CC6COC6)c5)nc4c3Cl)cc2[nH]1 [Compound 17],≥ 0.4 µM,≥ 0.4 µM,≥ 0.4 µM,≥ 0.4 µM,,,
Cc1nc2ccc(Oc3ccc4ncc(-c5cnn(CC6CCN(C(=O)C(F)(F)F)CC6)c5)nc4c3Cl)cc2[nH]1 [Compound 18],≥ 0.4 µM,0.02 to 0.1 µM,0.02 to 0.1 µM,0.02 to 0.1 µM,,,
Cc1nc2ccc(Oc3ccc4ncc(-c5cnn(C)c5)nc4c3Cl)cc2[nH]1 [Compound 19],≥ 0.4 µM,0.1 to 0.4 µM,0.1 to 0.4 µM,0.02 to 0.1 µM,,,
Cc1nc2ccc(Oc3ccc4ncc(-c5cnn(CC6CCN(C)C(=O)C6)c5)nc4c3Cl)cc2[nH]1 (centres unmarked) [Compound 20],≥ 0.4 µM,0.02 to 0.1 µM,0.02 to 0.1 µM,0.02 to 0.1 µM,,,

Compound,IC50 ([1]; Homo sapiens),"IC50 ([2]; Homo sapiens, SNU-16, 72 h)",IC50 [3],"IC50 ([4]; Homo sapiens, RT-112, 72 h)",IC50 ([2]; 72 hours),IC50 [1],IC50 ([4]; 72 hours)
Cc1nc2ccc(Oc3ccc4ncc(-c5cnn(C6CCNCC6)c5)nc4c3Cl)cc2[nH]1 [Compound 21],0.1 to 0.4 µM,0.02 to 0.1 µM,0.02 to 0.1 µM,< 0.02 µM,,,
Cc1nc2ccc(Oc3ccc4ncc(-c5cnn(CC(O)CO)c5)nc4c3Cl)cc2[nH]1 (centres unmarked) [Compound 22],≥ 0.4 µM,0.02 to 0.1 µM,0.1 to 0.4 µM,0.02 to 0.1 µM,,,
Cc1nc2ccc(Oc3ccc4ncc(-c5cnn(CC6CCN(CCO)CC6)c5)nc4c3Cl)cc2[nH]1 [Compound 23],0.1 to 0.4 µM,< 0.02 µM,< 0.02 µM,< 0.02 µM,,,
Cc1nc2ccc(Oc3ccc4ncc(-c5cnn(CC6CCN(C(C)C)CC6)c5)nc4c3Cl)cc2[nH]1 [Compound 24],0.1 to 0.4 µM,< 0.02 µM,< 0.02 µM,< 0.02 µM,,,
CCC(=O)N1CCC(Cn2cc(-c3cnc4ccc(Oc5ccc6nc(C)[nH]c6c5)c(Cl)c4n3)cn2)CC1 [Compound 25],0.1 to 0.4 µM,< 0.02 µM,0.02 to 0.1 µM,< 0.02 µM,,,
Cc1nc2ccc(Oc3ccc4ncc(-c5cnn(C6CCN(C)C6)c5)nc4c3Cl)cc2[nH]1 (centres unmarked) [Compound 26],0.1 to 0.4 µM,< 0.02 µM,0.02 to 0.1 µM,< 0.02 µM,,,
Cc1nc2ccc(Oc3ccc4ncc(-c5cnn(C6CCNC6)c5)nc4c3Cl)cc2[nH]1 (centres unmarked) [Compound 27],≥ 0.4 µM,0.1 to 0.4 µM,0.02 to 0.1 µM,0.02 to 0.1 µM,,,
Cc1nc2ccc(Oc3ccc4ncc(-c5cnn(CC6CCN(S(=O)(=O)CC#N)CC6)c5)nc4c3Cl)cc2[nH]1 [Compound 28],0.1 to 0.4 µM,0.02 to 0.1 µM,0.02 to 0.1 µM,0.02 to 0.1 µM,,,
COC(=O)CS(=O)(=O)N1CCC(Cn2cc(-c3cnc4ccc(Oc5ccc6nc(C)[nH]c6c5)c(Cl)c4n3)cn2)CC1 [Compound 29],≥ 0.4 µM,≥ 0.4 µM,≥ 0.4 µM,0.1 to 0.4 µM,,,
COCCN1CCC(Cn2cc(-c3cnc4ccc(Oc5ccc6nc(C)[nH]c6c5)c(Cl)c4n3)cn2)CC1 [Compound 30],0.1 to 0.4 µM,< 0.02 µM,< 0.02 µM,< 0.02 µM,,,
Cc1nc2ccc(Oc3ccc4ncc(-c5cnn(CC6CCN(C)CC6)c5C)nc4c3Cl)cc2[nH]1 [Compound 31],0.1 to 0.4 µM,0.02 to 0.1 µM,0.02 to 0.1 µM,0.02 to 0.1 µM,,,
Cc1nc2ccc(Oc3ccc4ncc(-c5cn(CC6CCN(C)CC6)nc5C)nc4c3Cl)cc2[nH]1 [Compound 32],≥ 0.4 µM,0.02 to 0.1 µM,0.02 to 0.1 µM,0.02 to 0.1 µM,,,
Cc1nc2ccc(Oc3ccc4ncc(-c5cnn(CC6CCN(S(C)(=O)=O)CC6)c5)nc4c3Cl)cc2n1S(C)(=O)=O [Compound 33],≥ 0.4 µM,0.02 to 0.1 µM,0.1 to 0.4 µM,0.02 to 0.1 µM,,,
CC(=O)N1CCC(Cn2cc(-c3cnc4ccc(Oc5ccc6nc(C)[nH]c6c5)c(Cl)c4n3)cn2)CC1 [Compound 34],≥ 0.4 µM,,0.02 to 0.1 µM,< 0.02 µM,,,
Cc1nc2ccc(Oc3ccc4ncc(-c5cnn(CC6CCN(C7COC7)CC6)c5)nc4c3Cl)cc2[nH]1 [Compound 35],≥ 0.4 µM,< 0.02 µM,0.02 to 0.1 µM,< 0.02 µM,,,
Cc1nc2ccc(Oc3ccc4ncc(-c5cnn(CC6CCNCC6)c5)nc4c3Cl)cc2[nH]1 [Compound 47],,,,,0.1 to 0.4 µM,≥ 0.4 µM,0.02 to 0.1 µM
C=CC(=O)N1CCC(CCn2cc(-c3cnc4ccc(Oc5ccc6nc(C)[nH]c6c5)cc4n3)cn2)CC1 [Compound 54],≥ 0.4 µM,,0.1 to 0.4 µM,0.1 to 0.4 µM,,,
C=CC(=O)N1CCC(Cn2cc(-c3cnc4ccc(Oc5ccc6nc(C)[nH]c6c5)cc4n3)cn2)CC1 [Compound 56],≥ 0.4 µM,,≥ 0.4 µM,0.1 to 0.4 µM,,,
Cc1nc2ccc(Oc3ccc4ncc(-c5cnn(CC6CCN(C)CC6)c5)nc4c3)cc2[nH]1 [Compound 57],≥ 0.4 µM,,0.1 to 0.4 µM,≥ 0.4 µM,,,
Cc1nc2ccc(Oc3ccc4ncc(-c5cnn(CC6CCOCC6)c5)nc4c3Cl)cc2[nH]1 [Compound 58],0.1 to 0.4 µM,,0.02 to 0.1 µM,0.02 to 0.1 µM,,,
